From patent publication US8980908B2, “Non-peptidyl, potent, and selective mu opioid receptor antagonists and their use in treating opioid addiction and opioid induced constipation” (Virginia Commonwealth University, priority 2009, dated 2015)
Read-outs that look alike come from different tables or passages of the source.

Key:
[1] = system: morphine antinociception in mice; assay: Warm-water tail immersion test, blockade of morphine antinociception (Example 2); assay type: in vivo, mouse (Swiss Webster); details: s.c., 5 min before morphine 10 mg/kg s.c.; 56 °C
Caco-2 cells [2] = details: cited from earlier work
[3] = system: mouse gastrointestinal transit; details: high doses; cited from earlier work
[4] = dose as high as 10 mg/kg; cited from earlier work
MOR [5] = biological target: T1, MOR (Mus musculus, UniProt P42866); assay: 35S-GTP[γS]-binding functional assay in MOR expressing CHO cells (Example 2); assay type: biochemical; set-up: expressed in transfected cells; host or cells: CHO (Chinese hamster ovary) cell line, membrane preparation
Procedure: Furthermore, these systems express the receptor at high density to provide optimal signal-to-noise ratios in the radioligand and ^35S-GTP[γS] binding assays.
(§1) Aliquots of a membrane preparation were incubated with the radioligands in the presence of different concentrations of the drug under investigation at 30° C. for 1 h. […] The potency of the drugs in displacing the specific binding of the radioligand was determined from data using linear regression analysis of Hill plots. The IC50 values will then be determined and corrected to K1 values using the Cheng-Prusoff equation. Functional assays, including ^35S-GTP[γS]-binding assay were conducted in the same cell membranes used for the receptor binding assays.

MOR [6] = biological target: T1, MOR; set-up: expressed in transfected cells; host or cells: CHO (Chinese hamster ovary) cell line, membrane preparation; details: Table 13 controls and NAP; read-out: Ki μ (see reference 65); cited from earlier work
MOR [7] = biological target: T1, MOR; set-up: expressed in transfected cells; host or cells: CHO (Chinese hamster ovary) cell line, membrane preparation; details: Table 13, NAP, cited from earlier work
KOR [8] = biological target: T2, KOR (Homo sapiens, UniProt P41145); assay: Competitive radioligand binding, [3H]norBNI or [3H]DPN, CHO cells (Example 7); details: Table 13; [3H]norBNI as radioligand; read-out: Ki κ
T2 construct: expressed in transfected cells; host or cells: CHO (Chinese hamster ovary) cell line, membrane preparation
Procedure: as §1, with “protein (30 μg)” for “preparation”, “corresponding radioligand” for “radioligands”, “Ki” for “K1”, “assays” for “assays, including ^35S-GTP[γS]-binding assay”, “assays. Membrane proteins (10 μg) were incubated with varying concentrations of drugs, GDP (μ: 10 μM; κ and δ: 20 μM) and 0.1 nM ^35S-GTP[γS] in assay buffer for 2 h (μ) or 1.5 h (κ and δ) at 30° C. Nonspecific binding was determined with 10 μM unlabeled GTP[γS].” for “assays.”

KOR [9] = biological target: T2, KOR; assay: KOR 35S-GTP[γS] binding assay (Example 7); assay type: biochemical; details: for KOR 35S-GTP[γS] Binding % Emax of U50,488H: U50,488H normalized to 100%; for EC50: three experiments
Procedure: as §1, with “protein (30 μg)” for “preparation”, “corresponding radioligand” for “radioligands”, “Ki” for “K1”, “assays” for “assays, including ^35S-GTP[γS]-binding assay”, “assays. Membrane proteins (10 μg) were incubated with varying concentrations of drugs, GDP (μ: 10 μM; κ and δ: 20 μM) and 0.1 nM ^35S-GTP[γS] in assay buffer for 2 h (μ) or 1.5 h (κ and δ) at 30° C. Nonspecific binding was determined with 10 μM unlabeled GTP[γS].” for “assays.”

Caco-2 cells [10] = assay: Bidirectional transport in Caco-2 cells; assay type: in vitro ADME
Procedure: To further characterize the permeability of compounds 8 and 12, they were evaluated in Caco-2 cells for their bidirectional transport capacity (FIG. 29).
Caco-2 (passages 45-47; ATCC, Manassas, Va.) cell culture and bidirectional permeability studies with polyester Transwell filters were performed as described previously.^67 Briefly, cells were cultured in Dulbecco's modified Eagle's medium (9.6 g/L glucose) with 10%/fetal bovine serum and supplemented with 100 unit/mL penicillin, 100 μg/mL streptomycin, and 5% nonessential amino acids for 22 days after seeding on 12 mm 0.4 μm #3460 Transwell-Clear inserts (Fisher Scientific) at a density of 80,000 cells/cm^2. […] A portion of the supernatants was analyzed by HPLC-UV using an Alltima HP C18 column (3 μm, 4.6×100 mm; Alltech, Deerfield, Ill.) at 270 nm for NAP, and a Microsorb-MV 100-3 C18 (4.6×100 mm; Varian) column for NMP or NGP at 266 nm. Analytes concentration was quantified from standard curves prepared in transport buffer-acetonitrile (4:1). […] Apparent permeability was then calculated using the following equation: Papp=J/(A×Ci), where J is the transport rate, A is the surface area of the cell monolayer, and Ci is the initial concentration of the dosing solution.

DOR [11] = biological target: DOR (UniProt P41143); assay: Competitive radioligand binding, [3H]NTI, CHO cells (Example 7); set-up: Ki δ; [3H]NTI; DOR 35S-GTP[γS]; other: three experiments; other: NAP; other: SNC80 normalized to 100%; details: Table 13, read-out: Ki δ
Procedure: as §1, with “protein (30 μg)” for “preparation”, “corresponding radioligand” for “radioligands”, “Ki” for “K1”, “assays” for “assays, including ^35S-GTP[γS]-binding assay”, “assays. Membrane proteins (10 μg) were incubated with varying concentrations of drugs, GDP (μ: 10 μM; κ and δ: 20 μM) and 0.1 nM ^35S-GTP[γS] in assay buffer for 2 h (μ) or 1.5 h (κ and δ) at 30° C. Nonspecific binding was determined with 10 μM unlabeled GTP[γS].” for “assays.”

DOR [12] = biological target: DOR (UniProt P41143); assay: DOR 35S-GTP[γS] binding assay (Example 7); assay type: biochemical; set-up: Ki δ; [3H]NTI; DOR 35S-GTP[γS]; other: three experiments; other: NAP; other: SNC80 normalized to 100%; details: for DOR 35S-GTP[γS] Binding % Emax of SNC80: SNC80 normalized to 100%; for EC50: three experiments
Procedure: as §1, with “protein (30 μg)” for “preparation”, “corresponding radioligand” for “radioligands”, “Ki” for “K1”, “assays” for “assays, including ^35S-GTP[γS]-binding assay”, “assays. Membrane proteins (10 μg) were incubated with varying concentrations of drugs, GDP (μ: 10 μM; κ and δ: 20 μM) and 0.1 nM ^35S-GTP[γS] in assay buffer for 2 h (μ) or 1.5 h (κ and δ) at 30° C. Nonspecific binding was determined with 10 μM unlabeled GTP[γS].” for “assays.”

MOR [13] = biological target: T1, MOR; assay: Competitive radioligand binding, [3H]naloxone, CHO cells (Example 7); set-up: expressed in transfected cells; host or cells: CHO (Chinese hamster ovary) cell line, membrane preparation; details: Table 13; for Selectivity δ/μ / Selectivity κ/μ: Ki ratio; for Ki: [3H]naloxone, three experiments, read-out: Ki μ
Procedure: as §1, with “protein (30 μg)” for “preparation”, “corresponding radioligand” for “radioligands”, “Ki” for “K1”, “assays” for “assays, including ^35S-GTP[γS]-binding assay”, “assays. Membrane proteins (10 μg) were incubated with varying concentrations of drugs, GDP (μ: 10 μM; κ and δ: 20 μM) and 0.1 nM ^35S-GTP[γS] in assay buffer for 2 h (μ) or 1.5 h (κ and δ) at 30° C. Nonspecific binding was determined with 10 μM unlabeled GTP[γS].” for “assays.”

MOR [14] = biological target: T1, MOR; assay: MOR 35S-GTP[γS] binding assay (Example 7); assay type: biochemical; set-up: expressed in transfected cells; host or cells: CHO (Chinese hamster ovary) cell line, membrane preparation; details: Table 13; for MOR 35S-GTP[γS] Binding % Emax of DAMGO: DAMGO normalized to 100%
Procedure: as §1, with “protein (30 μg)” for “preparation”, “corresponding radioligand” for “radioligands”, “Ki” for “K1”, “assays” for “assays, including ^35S-GTP[γS]-binding assay”, “assays. Membrane proteins (10 μg) were incubated with varying concentrations of drugs, GDP (μ: 10 μM; κ and δ: 20 μM) and 0.1 nM ^35S-GTP[γS] in assay buffer for 2 h (μ) or 1.5 h (κ and δ) at 30° C. Nonspecific binding was determined with 10 μM unlabeled GTP[γS].” for “assays.”

[15] = system: morphine antinociceptive effect in mice; details: antagonizing morphine 10 mg/kg; s.c.; cited from earlier work
[16] = in vivo; cited from earlier work
mice = assay: Tail flick test, acute antinociception (Example 7); details: 10 mg/kg
morphine naive mice = assay: Acute charcoal gavage and intestinal motility assay in morphine naive mice; details: morphine 10 mg/kg
KOR [17] = biological target: T2, KOR; assay type: binding; details: n=3; read-out: Ki ± SEM [3H]norBNI (κ)
KOR [18] = biological target: T2, KOR; assay type: binding; details: n=3; read-out: Ki ± SEM KOR
DOR [19] = biological target: DOR (UniProt P41143); assay type: binding; set-up: rows headed: Ki ± SEM [3H]NTI (δ); other: n=3; Ki ± SEM DOR; details: n=3; read-out: Ki ± SEM [3H]NTI (δ)
DOR [20] = biological target: DOR (UniProt P41143); assay type: binding; set-up: rows headed: Ki ± SEM [3H]NTI (δ); other: n=3; Ki ± SEM DOR; details: n=3; read-out: Ki ± SEM DOR
MOR [21] = biological target: T1, MOR; assay: Competitive radioligand binding, [3H]DAMGO, mono-cloned receptor in CHO cells (Example 1); set-up: expressed in transfected cells; host or cells: CHO (Chinese hamster ovary) cell line, membrane preparation; details: read-out: Ki ± SEM [3H]DAMGO (μ); n=3
MOR [22] = biological target: T1, MOR; assay: [35S]GTPγS functional assay (Example 1); assay type: biochemical; set-up: expressed in transfected cells; host or cells: CHO (Chinese hamster ovary) cell line, membrane preparation; details: Emax of compound vs Emax of DAMGO (normalized to 100%)
MOR [23] = biological target: T1, MOR; assay: Competitive radioligand binding, [3H]naloxone, CHO cells (Example 2); set-up: expressed in transfected cells; host or cells: CHO (Chinese hamster ovary) cell line, membrane preparation; details: n=3; read-out: Ki ± SEM MOR

| Compound | AD50 value for blockade of morphine antinociception [1] | Ki (KOR [8]) | KOR 35S-GTP[γS] Binding % Emax of U50,488H (KOR [9]) | EC50 (KOR [9]) | apparent permeability / bidirectional transport (Caco-2 cells [10]) | Ki (DOR [11]) | DOR 35S-GTP[γS] Binding % Emax of SNC80 (DOR [12]) | EC50 (DOR [12]) | Selectivity δ/μ (MOR [13]) | Selectivity κ/μ (MOR [13]) | Ki (MOR [13]) | EC50 (MOR [14]) | MOR 35S-GTP[γS] Binding % Emax of DAMGO (MOR [14]) | also measured |
| --- | --- | --- | --- | --- | --- | --- | --- | --- | --- | --- | --- | --- | --- | --- |
| 17-Cyclopropylmethyl-3,14β-dihydroxy-4,5α-epoxy-6β-[(4′-pyridyl)acetamido]morphinan [Compound 6] | 4.5198 (2.4570 to 8.269.12) mg/kg (95% C.L.) |  |  |  |  |  |  |  |  |  |  |  |  | apparent permeability (words, reported previously) (Caco-2 cells [2]): significantly low; diarrhea [3]: incidence of diarrhea associated with high doses of NAP; withdrawal symptoms [4]: marginal withdrawing symptoms; EC50 (MOR [5]; n=3): 1.15 ± 0.384 nM; Emax (% Stim) (MOR [5]; n=3): 83.3 ± 3.1 % Stim; Percent Max of DAMGO (MOR [5]; normalized to full agonist DAMGO (3 μM)): 22.72 ± 0.84%; Ki (MOR [6]): 0.37 ± 0.07 nM; MOR 35S-GTP[γS] Binding % Emax of DAMGO (see reference 65) (MOR [7]): 22.72 ± 0.84%; EC50 (MOR [7]; read-out: MOR 35S-GTP[γS] Binding EC50 (see reference 65)): 1.14 ± 0.38 nM |
| 17-Cyclopropylmethyl-3,14β-dihydroxy-4,5α-epoxy-6β-{2′-[(pyridine-4″-yl)carboxamido]acetamido}morphinan [Compound 12] |  | 203 ± 67 nM | 23.5 ± 1.6% | 25 ± 22.4 nM | no significant difference in its bidirectional transport capacity | 526 ± 78.3 nM | 84.3 ± 23.2% | 19 ± 2.9 nM | 719 | 278 | 0.73 ± 0.59 nM | 2.84 ± 0.53 nM | 22.62 ± 0.66% |  |
| 17-Cyclopropylmethyl-3,14β-dihydroxy-4,5α-epoxy-6β-{[4′-(3′-methylpyridyl)]carboxamido}morphinan [Compound 8] |  | 96.7 ± 12.2 nM | 31.4 ± 3.9% | 26.4 ± 8.4 nM | low permeability | 273.6 ± 1.8 nM | 90.2 ± 21.0% | 38.6 ± 10 nM | 470 | 166 | 0.58 ± 0.25 nM | 1.52 ± 0.26 nM | 30.63 ± 0.55% |  |
| C=CCN1CC[C@]23c4c5ccc(O)c4O[C@H]2C(=O)CC[C@@]3(O)[C@H]1C5 [Naloxone, reference compound] | 0.05 (0.03 to 0.09) mg/kg (95% C.L.) |  |  |  |  |  |  |  |  |  |  |  |  | AD50 values (data taken from Li, et al.) [15]: 0.05 (0.03-0.09) mg/kg (95% CL); systemic bioavailability [16]: ~2% |
| CN1CC[C@]23c4c5ccc(O)c4O[C@H]2[C@@H](O)C=C[C@H]3[C@H]1C5.O=S(=O)(O)O [morphine, Morphine sulfate] |  |  |  |  |  |  |  |  |  |  |  |  |  | percentage maximum possible effect (% MPE) (mice): 100%; intestinal motility (% of intestine length travelled by charcoal) (morphine naive mice): 12.4±2.0% |
| COC(=O)/C=C/C(=O)N[C@@H]1CC[C@@]2(O)[C@H]3Cc4ccc(O)c5c4[C@@]2(CCN3CC2CC2)[C@H]1O5 [β-FNA, β-funaltrexamine] |  |  |  |  |  |  |  |  |  |  |  |  |  | Ki (KOR [17]): 0.94 ± 0.05 nM; Ki (KOR [18]): 0.94 ± 0.05 nM; Ki (DOR [19]): 27.8 ± 4.6 nM; Ki (DOR [20]): 27.8 ± 4.6 nM; Ki (MOR [21]): 0.41 ± 0.04 nM; Percent Max of DAMGO (MOR [22]): 0.00%; Ki (MOR [23]): 0.41 ± 0.04 nM |
